The values that follow come from paper PMC5903342 (Oxidative Medicine and Cellular Longevity, 2018).

The structures appear in SMILES notation. Read-outs that look alike come from different tables or passages of the source.

Series [1] in a line: DPPH free radical scavenging assay. The series is classed as biochemical. The conditions noted are these: absorbance at 517 nm. As to the method: The free radical scavenging activity was measured by following microplate procedures as previously described. One hundred microliters of the sample dilutions with five concentration levels (varying from 0 to 2000 μM in DMSO) was added to two identical groups of wells in a 96-well microplate. The same volume of 0.1 mM DPPH-methanol solution was added to each well of one group (samples), and methanol ([…]) was added to the other group (blanks). The control was prepared by mixing the DPPH-methanol solution with the sample solvent or butylated hydroxytoluene (BHT). The solutions were mixed thoroughly, covered, and allowed to react in the dark at room temperature for 40 min. The absorbance was measured at 517 nm using a microplate reader (Quant, BioTek Instruments Inc.), and the scavenging activity was calculated from the absorbance values according to the following equation: […]. The antioxidant properties of the samples were expressed as half the maximal effective concentrations (EC50) obtained by interpolation from the linear regression analysis. BHT was used as the positive control.

Series [2] deals with Salmonella enterica serovar typhimurium TA104. Briefly: Antimutagenicity assay (Salmonella/microsome), strain TA104. It is filed as cell-based. The conditions noted are these: atorvastatin 0 μM. The text has this:
(§1) Salmonella enterica serovar typhimurium (S. typhimurium) strains TA100, TA1535, TA104, and TA102 from the authors' laboratory stock were used as described by Maron and Ames in the antimutagenicity assay.
(§2) We carried out the coexposure protocol of the antimutagenicity assay to investigate the potential of the compound to protect against alkylation-mediated genetic mutation in S. typhimurium TA100, TA102, TA104, and TA1535 strains according to Ajith and Soja. The test proceeded both in the absence and presence of a metabolic activation system (4% S9 mix, Aroclor preinduced, from MOLTOX Inc., USA). DMSO 1% served as the negative control. […] The mixtures were incubated in a shaker at 37°C (preincubation) under light protection. After a total of 60 min of cotreatment, the mixtures were added to and mixed with 2 mL top agar containing 0.05 mmol/L L-histidine and D-biotin for the S. typhimurium strains. Each of these was then spread on a minimal glucose agar (1.5% agar, Vogel-Bonner medium E, containing 2% glucose) plate. After the top agar solidified, the plates were incubated at 37°C for 60–72 h. Each tester strain was assayed in triplicate and repeated at least twice, and the number of revertant colonies was counted for each tester strain and treatment group. The counts of revertant colonies were obtained to build a dose-response curve and calculate the percentage of reduction.

Series [3] concerns Salmonella enterica serovar typhimurium TA100. Put plainly: Antimutagenicity assay (Salmonella/microsome), strain TA100 (co-, pre- and posttreatment). It is filed as cell-based. The conditions noted are these: atorvastatin 0 μM.
The subject of series [4] is HepG2 cells. Put plainly: Flow cytometry cell cycle analysis. The series is classed as cell-based, Human. The conditions noted are these: 24 h. As to the method:
The cells (1 × 10^5) were washed in PBS solution and centrifuged at 400 ×g for 5 min, and after, the cells were suspended in DNA staining solution (0.3% Triton X-100 and 50 μg/mL propidium iodide (PI) in a 43 mM citrate buffer), as previously described. After 45 minutes of treatment with 50 μg/mL ribonuclease A (Sigma, EUA), the PI fluorescence was determined (10,000 events per sample) in a Gallios flow cytometer (Beckman Coulter, USA). Data were analyzed by the Summit v4.3 software. The experiments were done at least three times, and statistical analysis was performed by one-way ANOVA followed by a Tukey's post hoc test.

Series [5] has as its system HepG2 cells.
Protocol: (§3) Human hepatocellular carcinoma cells (HepG2) obtained from the American Type Culture Collection (Manassas, VA) were cultured in a minimum Eagle's medium (MEM, Gibco®, USA) containing 10% fetal bovine serum (FBS) plus 100 μg/mL streptomycin and 100 μg/mL penicillin at 37°C in a 5% CO2 atmosphere. Logarithmic-phase cells were used in all the experiments [9].
The HepG2 cells were seeded at a density of 1 × 10^5/mL into 24-well plates (1 mL/well). […] DMSO 1% was used as the negative control. After exposure to the compounds, the cells were incubated for 24 h more and the cytogenetic studies were carried out in triplicate and N = 3 [14]. In order to determine the mitotic index and the number of cells with micronuclei, the medium was replaced by a cold methanol-glacial acetic acid (3 : 1) fixative for 30 min and the cells were then rinsed with distilled water for 2 min and air dried. […] To determine the mitotic index and the number of cells with micronuclei, 2000 cells per well (6000 cells per concentration) were analyzed using fluorescence microscopy (Reichert Univar) with an excitation wavelength of 350 nm. […] Statistical differences between the groups were analyzed by a one-way ANOVA (p < 0.01) and Tukey's post hoc test.
A further series is described as follows: in vitro. It is filed as cell-based. The conditions noted are these: human, HepG2, 24 h of exposure.
Series [6] concerns Salmonella enterica serovar typhimurium TA1535. Briefly: Antimutagenicity assay (Salmonella/microsome), strain TA1535. It is filed as cell-based. The conditions noted are these: atorvastatin 0 μM.
Excerpt: as §1, §2

Series [7] concerns Salmonella enterica serovar typhimurium TA102. Briefly: Antimutagenicity assay (Salmonella/microsome), strain TA102. It is filed as cell-based. The conditions noted are these: atorvastatin 0 μM.
Excerpt: as §1, §2

Series [8] relates to Salmonella enterica serovar typhimurium TA98 and TA100 strains. The conditions noted are these: sodium azide or 4-nitro-o-phenylenediamine, TA98 and TA100, absence of metabolic activation; cited from earlier work.
The test system of the next series is CHO-K1 cells. On the set-up: method as in PMID 15988137. The conditions noted are these: statins from 10 μM to 100 μM; cited from earlier work.
Where [9] appears, read: TA100, cotreatment protocol, +S9, CPA (150 μM) only.
Where [10] appears, read: TA100, posttreatment protocol, +S9, CPA (150 μM) only.
Where [11] appears, read: TA100, pretreatment protocol, +S9, CPA (150 μM) only.
[12] abbreviates: TA100, cotreatment protocol, −S9, MMS (100 μM) only.
The mark [13] stands for this setting: TA100, posttreatment protocol, −S9, MMS (100 μM) only.
The mark [14] stands for this setting: TA100, pretreatment protocol, −S9, MMS (100 μM) only.

Protocol for in vitro: as §3
Fresh HepG2 cells were seeded at a density of 1 × 10^5/well.

The compound `Cc1cc(C(C)(C)C)c(O)c(C(C)(C)C)c1` [BHT, butylated hydroxytoluene] showed an EC50 in series [1] of 83 ± 2 µM.
In the case of `O=P1(N(CCCl)CCCl)NCCCO1` (stereo not drawn) [CPA, cyclophosphamide], the “His+ (revertant colonies)” value in [2] (TA104, +S9, CPA (150 μM) only) was determined as 1092 ± 85; in series [3] (setting [9]), 239 ± 30; in [3] (setting [10]), 278 ± 33; in [3] (setting [11]), 244 ± 8; in [6] (TA1535, +S9, CPA (150 μM) only) it was 56 ± 6; in series [7] (TA102, +S9, CPA (150 μM) only), 588 ± 85. Besides, the “MI (mutagenicity index)” value in series [2] (TA104, +S9, CPA (150 μM) only) was determined as 2.40; in series [3] (setting [9]), 2.13; in series [3] (setting [10]) it was 2.66; in [3] (setting [11]) it was 2.44; in series [6] (TA1535, +S9, CPA (150 μM) only), 2.80; in [7] (TA102, +S9, CPA (150 μM) only) it was 2.1. In addition, the “sub-G1 percentage of cells” value with HepG2 cells [4] (CPA only (no AVA)) is 17%. Further, in the series on HepG2 cells [4] (exposure just to CPA), the polyploid subpopulation amounted to 13%. Besides, the “Micronucleus formation, fold in comparison to the negative control” value in the series with HepG2 cells [5] (60.0 μM CPA only, 6 h and 24 h) is recorded as 5-6 fold. Further, the CC50 at 24 h in “in vitro” (read-out: LC50) was 98.7 ± 11.5 µM.
For the compound `CC[C@H](C)C(=O)O[C@H]1C[C@@H](C)C=C2C=C[C@H](C)[C@H](CC[C@@H]3C[C@@H](O)CC(=O)O3)[C@H]21` [LOVA, lovastatin], the “Antimutagenic (chemopreventive) effect against direct mutagens” value in series [8] is listed as “able to exert chemopreventive effects”.
Take `COS(C)(=O)=O` [MMS, methyl methanesulfonate]: the “His+ (revertant colonies)” value in series [2] (TA104, −S9, MMS (100 μM) only) was found to be 897 ± 55; in [3] (setting [12]), 212 ± 11; in [3] (setting [13]), 264 ± 31; in series [3] (setting [14]) it was 230 ± 23; in series [6] (TA1535, −S9, MMS (100 μM) only) it was 71 ± 5; in [7] (TA102, −S9, MMS (100 μM) only) it was 578 ± 55. Further, the “MI (mutagenicity index)” value stood at 2.24 in series [2] (TA104, −S9, MMS (100 μM) only); 2.14 in series [3] (setting [12]); 2.09 in [3] (setting [13]); 2.26 in series [3] (setting [14]); 2.84 in [6] (TA1535, −S9, MMS (100 μM) only); 2.31 in [7] (TA102, −S9, MMS (100 μM) only). In the series with HepG2 cells [4] (human, 20 μM), this compound had a polyploid subpopulation of 15%. In addition, the “sub-G1 percentage of cells” value with HepG2 cells [4] (human, 20 μM) turned out to be 19%. The “Micronucleus formation, fold in comparison to the negative control” value in the series on HepG2 cells [5] (only MMS-exposed cells (10.0 μM MMS), 6 and 24 h) is 6-7 fold. Further, the CC50 in the series “in vitro” (read-out: LC50 (the source's name)) is 18.7 ± 6.67 µM.
Turning to `CC(C)n1c(/C=C/C(O)CC(O)CC(=O)O)c(-c2ccc(F)cc2)c2ccccc21` (stereo not drawn) [fluvastatin], the “Micronucleus formation after exposure to bleomycin” value in the series with CHO-K1 cells is given as “reduced micronucleus formation”.
Take `CC[C@H](C)C(=O)O[C@H]1C[C@H](O)C=C2C=C[C@H](C)[C@H](CC[C@@H](O)C[C@@H](O)CC(=O)O)[C@H]21` [pravastatin]: the “Micronucleus formation after exposure to bleomycin” value in the series with CHO-K1 cells is reported as “reduced micronucleus formation”.
